Eight molecules from patent publication EP1780283A1, “Trophic conversion of obligate photographic algae through metabolic engineering” (MARTEK BIOSCIENCES CORPORATION, priority 2000, dated 2001) can be followed below.

One assay has as its system Cyclotella cryptica. As to the kind of experiment: Antibiotic sensitivity of diatoms on solid media. It counts as cell-based. The conditions noted are these: for lowest concentration of antibiotic per ml required for cell death or the lowest concentration tested: reduced salinity, 10% of normal seawater. The protocol:
(§1) The diatoms Phaeodactylum tricornutum, Cylindrotheca fusiformis, Cyclotella cryptica and Nitzschia alba were extensively tested for sensitivity to a series of antibiotics for which resistance genes are available, and the lowest concentrations which completely abrogate growth were determined for each antibiotic (Table C). […] These include antibiotics such as G418, Hygromycin, Kanamycin and Spectinomycin, which are routinely utilized for selection of other eukaryotic organisms.
(§2) The effective concentration range of the antibiotic in most cases was lowered by a factor of 10.
(§3) Cells of each diatom species were plated on solid media at salinity equivalents of 25-100% I.O. media, with a gradient of antibiotic concentrations. After 2 weeks of illumination the growth of the cells was assessed and the concentration of antibiotic required for cell death was determined. (Table D). Table C. Effect of antibiotics on the growth of selected diatoms. Values represent the lowest concentration of the antibiotic per ml required for cell death or the highest concentration tested.
(§4) Table D. Effect of antibiotics on the growth of selected diatoms in media with reduced salinity. The relative percentage of salinity verses normal seawater of the medium is given in parentheses. Antibiotic levels are given as the lowest concentration of antibiotic per ml required for cell death or the lowest concentration tested.

The subject of the next assay is Cylindrotheca fusiformis. Put plainly: Antibiotic sensitivity of diatoms on solid media. In kind it is cell-based. Particulars: for lowest concentration of antibiotic per ml required for cell death or the lowest concentration tested: reduced salinity. Here is the method:
as §1, §2, §3, §4

Assay [1] has as its system Phaeodactylum tricornutum. Put plainly: Antibiotic sensitivity of diatoms on solid media. It counts as cell-based. Particulars: for lowest concentration of antibiotic per ml required for cell death or the lowest concentration tested: reduced salinity. Here is the method: as §1, §2, §3, §4
Another assay has as its system Nitzschia alba. Put plainly: Antibiotic sensitivity of diatoms on solid media. It counts as cell-based. Here is the method:
as §1, §3

The test system of assay [2] is human Glut1 glucose transporter (Glut1, from human erythrocytes), expressed in P. tricornutum transformants Glut-13 and Glut-17. As to the kind of experiment: Glucose uptake kinetics (D-14C-glucose) of glut1 containing P. tricornutum transformants. It counts as cell-based, Phaeodactylum tricornutum. The conditions noted are these: cell line Glut-13; 5x10^-4 of Cytochalasin B (unit not given).

Where [3] appears, read: C. cryptica, solid media, 100% I.O. media, 2 weeks of illumination.
Setting [4] is: C. fusiformis, 25% of normal seawater.
The mark [5] stands for this setting: C. fusiformis, 50% of normal seawater.
[6] abbreviates: C. fusiformis, solid media, 100% I.O. media, 2 weeks of illumination.
Where [7] appears, read: P. tricornutum, 50% of normal seawater.
[8] abbreviates: P. tricornutum, solid media, 100% I.O. media, 2 weeks of illumination.
Setting [9] is: N. alba, solid media, 100% I.O. media, 2 weeks of illumination.
The mark [10] stands for this setting: P. tricornutum, 25% of normal seawater.

Read-outs that look alike come from different tables or passages of the source. Some results are limits rather than exact numbers.

Turning to `Cc1c(N)nc([C@H](CC(N)=O)NC[C@H](N)C(N)=O)nc1C(=O)N[C@H](C(=O)N[C@H](C)[C@@H](O)[C@H](C)C(=O)N[C@H](C(=O)NCCC1=N[C@@H](c2nc(C(=O)NCCCCN=C(N)N)cs2)CS1)[C@@H](C)O)[C@@H](O[C@@H]1O[C@@H](CO)[C@@H](O)[C@H](O)[C@@H]1O[C@H]1O[C@H](CO)[C@@H](O)[C@H](OC(N)=O)[C@@H]1O)c1cnc[nH]1` [Zeocin], the “lowest concentration of antibiotic per ml required for cell death or the lowest concentration tested” value in the assay with Cyclotella cryptica (C. cryptica) is < 5 mg (10%) mg per ml; in the assay with Cylindrotheca fusiformis (setting [4]), 100 mg (25%) mg per ml; with Cylindrotheca fusiformis (setting [5]), 250 mg (50%) mg per ml; in assay [1] (setting [7]), 25 mg (50%) mg per ml. The “lowest concentration of the antibiotic per ml required for cell death or the highest concentration tested” value was 250 mg mg per ml in the assay on Cyclotella cryptica (setting [3]), above 250 mg mg per ml with Cylindrotheca fusiformis (setting [6]), 50 mg mg per ml in assay [1] (setting [8]) and above 250 mg mg per ml in the assay with Nitzschia alba (setting [9]).
Turning to Bleomycin, the “lowest concentration of the antibiotic per ml required for cell death or the highest concentration tested” value (in the assay on Cylindrotheca fusiformis (setting [6]); in assay [1] (setting [8])) was above 50 mg mg per ml each time.
As to Nourseothricin, the “lowest concentration of antibiotic per ml required for cell death or the lowest concentration tested” value with Cyclotella cryptica (C. cryptica) is < 5 mg (10%) mg per ml; with Cylindrotheca fusiformis (setting [4]), < 10 mg (25%) mg per ml; with Cylindrotheca fusiformis (setting [5]) it was 50 mg (50%) mg per ml; in assay [1] (setting [10]) it was 10 mg (25%) mg per ml; in assay [1] (setting [7]) it was 25 mg (50%) mg per ml. Also, the “lowest concentration of the antibiotic per ml required for cell death or the highest concentration tested” value is given as above 250 mg mg per ml with Cyclotella cryptica (setting [3]), above 250 mg mg per ml with Cylindrotheca fusiformis (setting [6]), 250 mg mg per ml in assay [1] (setting [8]) and above 250 mg mg per ml with Nitzschia alba (setting [9]).
Consider Neomycin, for which the “lowest concentration of the antibiotic per ml required for cell death or the highest concentration tested” value (with Cyclotella cryptica (setting [3]); in the assay on Cylindrotheca fusiformis (setting [6]); in assay [1] (setting [8]); in the assay with Nitzschia alba (setting [9])) was above 1 mg mg per ml each time.
For `C=C1C(C)C2C(Cc3ccccc3)NC(=O)C23OC(=O)C=CC(O)CCCC(C)CC=CC3C1O` (centres unmarked) [Cytochalasin B], the “glucose uptake in the presence of Cytochalasin B” value in assay [2] is listed as “reduced to an undetectable level”.
For `CN[C@@H]1[C@@H](O)[C@@H](O[C@@H]2[C@@H](O)[C@H](O[C@H]3O[C@H]([C@@H](C)O)[C@@H](O)[C@H](O)[C@H]3N)[C@@H](N)C[C@H]2N)OC[C@]1(C)O` [G418], the “lowest concentration of the antibiotic per ml required for cell death or the highest concentration tested” value with Cyclotella cryptica (setting [3]) is on record as 250 mg mg per ml; in the assay with Cylindrotheca fusiformis (setting [6]) it was above 1 mg mg per ml; in assay [1] (setting [8]) it was above 1 mg mg per ml; in the assay with Nitzschia alba (setting [9]), above 500 mg mg per ml.
On to Phleomycin, for which the “lowest concentration of antibiotic per ml required for cell death or the lowest concentration tested” value is < 5 mg (10%) mg per ml with Cyclotella cryptica (C. cryptica); < 5 mg (25%) mg per ml with Cylindrotheca fusiformis (setting [4]); 25 mg (50%) mg per ml in the assay on Cylindrotheca fusiformis (setting [5]); < 5 mg (25%) mg per ml in assay [1] (setting [10]); < 5 mg (50%) mg per ml in assay [1] (setting [7]). Also, the “lowest concentration of the antibiotic per ml required for cell death or the highest concentration tested” value in the assay with Cyclotella cryptica (setting [3]) was 25 mg mg per ml; with Cylindrotheca fusiformis (setting [6]), 25 mg mg per ml; in assay [1] (setting [8]) it was 5 mg mg per ml; in the assay with Nitzschia alba (setting [9]), above 50 mg mg per ml.
For the molecule `CN[C@@H]1C[C@H](N)[C@@H](O)[C@H](O[C@H]2O[C@H](CO)[C@H](O)[C@@H]3O[C@@]4(O[C@@H]23)O[C@H]([C@H](N)CO)[C@H](O)[C@H](O)[C@H]4O)[C@H]1O` [Hygromycin], the “lowest concentration of the antibiotic per ml required for cell death or the highest concentration tested” value is on record as above 500 mg in the assay on Cyclotella cryptica, 500 mg in the assay on Cylindrotheca fusiformis, above 1 mg in assay [1] and above 500 mg in the assay on Nitzschia alba.
